Measurements reported in publication PMC9750858, “Rapid biosensor development using plant hormone receptors as reprogrammable scaffolds” (Nature Biotechnology, 2022).
Numbering of substitutions follows the chain as printed. “And” between values parts separate entries of the source, which are not always exact repeats. Equal entries are not always repeated.

Tests used:
PYR1^WIN-M = biological target: T1, PYR1^WIN-M (Arabidopsis thaliana, UniProt O49686, A160I/D26G/E4G/F159A/H60P/K59Q/N90S/Y23H); assay: ELISA-like plate assay, immobilized PYR1^WIN-M, biotinylated ΔN-HAB1^T+; assay type: binding; settings: for ELISA signal generation, receptor cross-reactivity (source data): replicates, 212
T1 construct: made in house
T1 sequence (O49686 with tags, fused parts or gaps E4G/Y23H/D26G/K59Q/H60P/N90S/F159A/A160I): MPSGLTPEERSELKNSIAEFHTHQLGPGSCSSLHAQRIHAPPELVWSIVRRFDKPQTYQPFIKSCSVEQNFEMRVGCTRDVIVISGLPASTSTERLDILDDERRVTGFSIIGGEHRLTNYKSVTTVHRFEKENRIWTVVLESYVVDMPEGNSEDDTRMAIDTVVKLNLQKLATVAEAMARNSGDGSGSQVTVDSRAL

PYR1^WIN [1] = biological target: T2, PYR1^WIN (Arabidopsis thaliana, UniProt O49686, A160I/D26G/E4G/F159A/K59Q/Y23H); assay: Yeast transcriptional activation circuit Z4-PYR1/VP64-ΔN-HAB1, GFP reporter, PYR1^WIN; settings: for whole-cell GFP fluorescence (Fig. 3b source data): 12 h, replicates
T2 sequence (Q9CAJ0 179-511): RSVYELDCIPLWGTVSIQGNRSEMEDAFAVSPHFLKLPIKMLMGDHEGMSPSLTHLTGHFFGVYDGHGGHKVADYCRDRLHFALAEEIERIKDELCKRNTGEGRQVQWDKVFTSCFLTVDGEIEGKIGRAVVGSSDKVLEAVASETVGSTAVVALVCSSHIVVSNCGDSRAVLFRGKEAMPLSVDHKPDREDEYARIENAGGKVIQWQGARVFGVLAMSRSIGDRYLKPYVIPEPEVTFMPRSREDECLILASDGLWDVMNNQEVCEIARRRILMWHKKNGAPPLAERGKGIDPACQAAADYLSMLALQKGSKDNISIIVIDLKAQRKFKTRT
T2 sequence (O49686 other isoform, or with tags, fused parts or gaps E4G/Y23H/D26G/K59Q/F159A/A160I): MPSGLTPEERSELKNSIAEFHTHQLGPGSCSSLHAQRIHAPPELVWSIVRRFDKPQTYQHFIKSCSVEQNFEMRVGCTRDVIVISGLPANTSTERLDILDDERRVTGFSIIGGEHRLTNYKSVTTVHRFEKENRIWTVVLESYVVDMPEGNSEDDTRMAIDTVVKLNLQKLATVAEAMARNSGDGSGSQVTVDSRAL

PYR1^WIN [2] = biological target: T2, PYR1^WIN; assay: Split NanoLuc luciferase complementation in yeast, NLuc^N-PYR1^WIN/NLuc^C-ΔN-HAB1; assay type: cell-based; design: >PYR1-WIN; expressed in transfected cells; host or cells: Saccharomyces cerevisiae; settings: for LUM, split luciferase luminescence (Fig. 3c source data): replicates
[3] = system: PYR1-derived cannabinoid receptors (PYR1 mutants) binding HAB1
PYR1^WIN / ΔN-HAB1 = biological target: T3, PYR1^WIN / ΔN-HAB1 (Arabidopsis thaliana, UniProt O49686, A160I/D26G/E4G/F159A/K59Q/Y23H); assay: Ligand/receptor-mediated PP2C (ΔN-HAB1 phosphatase) inhibition, fluorogenic substrate, PYR1^WIN; assay type: biochemical
T3 construct: 6xHis (N); made in house; host or cells: E. coli BL21 (DE3) pLysS
T3 sequence (O49686 with tags, fused parts or gaps E4G/Y23H/D26G/K59Q/F159A/A160I): T1 sequence (O49686 with tags, fused parts or gaps E4G/Y23H/D26G/K59Q/H60P/N90S/F159A/A160I) with P60H, S90N
Experimental: Coding sequences of the cannabinoid sensors were cloned into the protein expression vector pET28a to encode 6×His-tag-receptor fusions. Constructs were sequenced and transformed into the BL21 (DE3) pLysS E. coli strain for heterologous expression with IPTG (1 mM), followed by purification, using affinity chromatography, as previously reported. In vitro validation of evolved sensors was performed by using recombinant sensors and ΔN-HAB1 (HAB1 Δ1–178, ref. [36]) proteins, as previously described. […] Cannabinoid concentration curves ranged from 4 to 10,000 nM, and median inhibitory concentrations for PP2C inhibition were obtained via fluorescent measurement in the presence of 1 mM 4-methylumbelliferyl phosphate.

Cc1c(C(=O)c2cccc3ccccc23)c2cccc3c2n1C(CN1CCOCC1)CO3 (single isomer, unassigned; (+)) [WIN, (+)-WIN 55,212-2]
ELISA signal generation, receptor cross-reactivity (source data) (PYR1^WIN-M; cannabinoid at 2 nM): 1.487 and 1.277 and 1.151
ELISA signal generation, receptor cross-reactivity (source data) (PYR1^WIN-M; cannabinoid at 2 μM): 3.378 and 3.384 and 3.484
ELISA absorbance signal (source data) (PYR1^WIN-M; saline, ligand 1e-6 uM): 0.133 and 0.126 and 0.127
ELISA absorbance signal (source data) (PYR1^WIN-M; saline, ligand 1e-5 uM): 0.152 and 0.136 and 0.148
ELISA absorbance signal (source data) (PYR1^WIN-M; saline, ligand 0.0001 uM): 0.162 and 0.157 and 0.179
ELISA absorbance signal (source data) (PYR1^WIN-M; saline, ligand 0.001 uM): 0.26 and 0.252 and 0.274
ELISA absorbance signal (source data) (PYR1^WIN-M; saline, ligand 0.01 uM): 0.302 and 0.321 and 0.336
ELISA absorbance signal (source data) (PYR1^WIN-M; saline, ligand 0.1 uM): 0.327 and 0.325
ELISA absorbance signal (source data) (PYR1^WIN-M; saline, ligand 1 uM): 0.315 and 0.35 and 0.349
ELISA absorbance signal (source data) (PYR1^WIN-M; saline, ligand 10 uM): 0.341 and 0.349 and 0.35
ELISA absorbance signal (source data) (PYR1^WIN-M; saliva, ligand 1e-6 uM): 0.097 and 0.09 and 0.095
ELISA absorbance signal (source data) (PYR1^WIN-M; saliva, ligand 1e-5 uM): 0.096 and 0.098
ELISA absorbance signal (source data) (PYR1^WIN-M; saliva, ligand 0.0001 uM): 0.124 and 0.126 and 0.123
ELISA absorbance signal (source data) (PYR1^WIN-M; saliva, ligand 0.001 uM): 0.239 and 0.257 and 0.242
ELISA absorbance signal (source data) (PYR1^WIN-M; saliva, ligand 0.01 uM): 0.374 and 0.38 and 0.358
ELISA absorbance signal (source data) (PYR1^WIN-M; saliva, ligand 0.1 uM): 0.397 and 0.408 and 0.382
ELISA absorbance signal (source data) (PYR1^WIN-M; saliva, ligand 1 uM): 0.436 and 0.42 and 0.431
ELISA absorbance signal (source data) (PYR1^WIN-M; serum, ligand 1e-6 uM): 0.103 and 0.1 and 0.092
ELISA absorbance signal (source data) (PYR1^WIN-M; serum, ligand 1e-5 uM): 0.098 and 0.102
ELISA absorbance signal (source data) (PYR1^WIN-M; serum, ligand 0.0001 uM): 0.108 and 0.106 and 0.1
ELISA absorbance signal (source data) (PYR1^WIN-M; serum, ligand 0.001 uM): 0.141 and 0.195 and 0.127
ELISA absorbance signal (source data) (PYR1^WIN-M; serum, ligand 0.01 uM): 0.239 and 0.24
ELISA absorbance signal (source data) (PYR1^WIN-M; serum, ligand 0.1 uM): 0.319 and 0.268 and 0.325
ELISA absorbance signal (source data) (PYR1^WIN-M; serum, ligand 1 uM): 0.312 and 0.316 and 0.329
ELISA absorbance signal (source data) (PYR1^WIN-M; urine, ligand 1e-6 uM): 0.141 and 0.142 and 0.134
ELISA absorbance signal (source data) (PYR1^WIN-M; urine, ligand 1e-5 uM): 0.148 and 0.138
ELISA absorbance signal (source data) (PYR1^WIN-M; urine, ligand 0.0001 uM): 0.162 and 0.161 and 0.149
ELISA absorbance signal (source data) (PYR1^WIN-M; urine, ligand 0.001 uM): 0.248 and 0.231 and 0.225
ELISA absorbance signal (source data) (PYR1^WIN-M; urine, ligand 0.01 uM): 0.338 and 0.33 and 0.313
ELISA absorbance signal (source data) (PYR1^WIN-M; urine, ligand 0.1 uM): 0.356 and 0.348 and 0.341
ELISA absorbance signal (source data) (PYR1^WIN-M; urine, ligand 1 uM): 0.387 and 0.372 and 0.376
EC50 (PYR1^WIN [1]): 28 nM
whole-cell GFP fluorescence (Fig. 3b source data) (PYR1^WIN [1]; [Ligand] 0.0001 uM): 1.509 and 1.618 and 1.562
whole-cell GFP fluorescence (Fig. 3b source data) (PYR1^WIN [1]; [Ligand] 0.001 uM): 1.581 and 1.833 and 1.779
whole-cell GFP fluorescence (Fig. 3b source data) (PYR1^WIN [1]; [Ligand] 0.01 uM): 2.798 and 2.733 and 2.756
whole-cell GFP fluorescence (Fig. 3b source data) (PYR1^WIN [1]; [Ligand] 0.1 uM): 4.085 and 3.967 and 4.046
whole-cell GFP fluorescence (Fig. 3b source data) (PYR1^WIN [1]; [Ligand] 0.5 uM): 4.169 and 4.494 and 4.506
whole-cell GFP fluorescence (Fig. 3b source data) (PYR1^WIN [1]; [Ligand] 1 uM): 4.972 and 4.595 and 4.6223
whole-cell GFP fluorescence (Fig. 3b source data) (PYR1^WIN [1]; [Ligand] 5 uM): 4.959 and 4.89 and 5.277
whole-cell GFP fluorescence (Fig. 3b source data) (PYR1^WIN [1]; [Ligand] 10 uM): 5.105 and 5.0049 and 4.874
whole-cell GFP fluorescence (Fig. 3b source data) (PYR1^WIN [1]; [Ligand] 100 uM): 4.986 and 5.066 and 4.884
EC50 (PYR1^WIN [2]): 56 nM
LUM, split luciferase luminescence (Fig. 3c source data) (PYR1^WIN [2]; [Ligand] 0.0001 uM): 4.094 and 3.848 and 3.642
LUM, split luciferase luminescence (Fig. 3c source data) (PYR1^WIN [2]; [Ligand] 0.001 uM): 4.593 and 4.28 and 4.174
LUM, split luciferase luminescence (Fig. 3c source data) (PYR1^WIN [2]; [Ligand] 0.01 uM): 5.448 and 5.829 and 5.793
LUM, split luciferase luminescence (Fig. 3c source data) (PYR1^WIN [2]; [Ligand] 0.1 uM): 9.293 and 8.992 and 7.439
LUM, split luciferase luminescence (Fig. 3c source data) (PYR1^WIN [2]; [Ligand] 1 uM): 12.392 and 10.463 and 10.193
LUM, split luciferase luminescence (Fig. 3c source data) (PYR1^WIN [2]; [Ligand] 10 uM): 13.953 and 10.293 (2×)
cannabinoid concentration to which CB-S1 library clones respond (as low as) ([3]; clones from shuffled library CB-S1): 50 nM
stereoisomer recognized by the evolved WIN receptor ([3]; selections conducted using a racemate): recognizes the biologically active (+)-WIN 55,212-2 stereoisomer
EC50 (PYR1^WIN / ΔN-HAB1): 72 nM
inhibition of ΔN-HAB1 phosphatase activity relative to mock (Fig. 3a source data) (PYR1^WIN / ΔN-HAB1; [Ligand] 0.004115 uM, replicates, 0.004115 µM): -0.3447 and 3.327 and 8.558
inhibition of ΔN-HAB1 phosphatase activity relative to mock (Fig. 3a source data) (PYR1^WIN / ΔN-HAB1; [Ligand] 0.012346 uM, replicates, 0.012346 µM): 13.6846 and 17.5801
inhibition at 0.012346 µM (PYR1^WIN / ΔN-HAB1; [Ligand] 0.012346 uM, replicates, read-out: inhibition of ΔN-HAB1 phosphatase activity relative to mock (Fig. 3a source data)): 13.7%
inhibition of ΔN-HAB1 phosphatase activity relative to mock (Fig. 3a source data) (PYR1^WIN / ΔN-HAB1; [Ligand] 0.037037 uM, replicates, 0.037037 µM): 27.3559 and 29.1117
inhibition at 0.037037 µM (PYR1^WIN / ΔN-HAB1; [Ligand] 0.037037 uM, replicates, read-out: inhibition of ΔN-HAB1 phosphatase activity relative to mock (Fig. 3a source data)): 28.7%
inhibition of ΔN-HAB1 phosphatase activity relative to mock (Fig. 3a source data) (PYR1^WIN / ΔN-HAB1; [Ligand] 0.111111 uM, replicates, 0.111111 µM): 63.5233 and 58.9433
inhibition at 0.111111 µM (PYR1^WIN / ΔN-HAB1; [Ligand] 0.111111 uM, replicates, read-out: inhibition of ΔN-HAB1 phosphatase activity relative to mock (Fig. 3a source data)): 61.1%
inhibition of ΔN-HAB1 phosphatase activity relative to mock (Fig. 3a source data) (PYR1^WIN / ΔN-HAB1; [Ligand] 0.333333 uM, replicates, 0.333333 µM): 83.1534 and 83.7629
inhibition at 0.333333 µM (PYR1^WIN / ΔN-HAB1; [Ligand] 0.333333 uM, replicates, read-out: inhibition of ΔN-HAB1 phosphatase activity relative to mock (Fig. 3a source data)): 84.4%
inhibition of ΔN-HAB1 phosphatase activity relative to mock (Fig. 3a source data) (PYR1^WIN / ΔN-HAB1; [Ligand] 1 uM, replicates, 1 µM): 93.2666 and 92.7582
inhibition at 1 µM (PYR1^WIN / ΔN-HAB1; [Ligand] 1 uM, replicates, read-out: inhibition of ΔN-HAB1 phosphatase activity relative to mock (Fig. 3a source data)): 93.4%
inhibition of ΔN-HAB1 phosphatase activity relative to mock (Fig. 3a source data) (PYR1^WIN / ΔN-HAB1; [Ligand] 10 uM, replicates, 10 µM): 93.1102 and 92.715
inhibition at 10 µM (PYR1^WIN / ΔN-HAB1; [Ligand] 10 uM, replicates, read-out: inhibition of ΔN-HAB1 phosphatase activity relative to mock (Fig. 3a source data)): 97.6%
